Source: patent US10064804B2, “Polymeric nitrones and their use in personal care” (Dow Global Technologies LLC, priority 2014, dated 2018)

Assay: Oxygen Radical Absorbance Capacity (ORAC) antioxidant potential
Details: ORAC test, test solutions at 100 micromolar; calculated from ORAC values relative to Trolox
Description: Antioxidant potential is evaluated using the Oxygen Radical Absorbance Capacity (ORAC) protocol. ORAC is a chemical in-vitro method based on the hydrogen atom transfer (HAT) mechanism (see N. Re et al., Free Radical Biology & Medicine, 26 (9/10), 1231 (1997)). ORAC measures antioxidant inhibition of peroxyl radical induced oxidations and thus reflects classical radical chain breaking antioxidant activity by H atom transfer. In this assay, the peroxyl radical reacts with a fluorescent probe to form a non-fluorescent product. This is quantitated using a fluorescence measurement. Antioxidant capacity is determined by decreased rate and amount of product formed over time. This assay depends upon the free radical damage to the fluorescent probe resulting in the change in its fluorescence intensity. The change of fluorescence intensity is an indicator of the degree of free radical damage. In the presence of an antioxidant, the inhibition of free radical damage is reflected in higher fluorescence intensity and can be measured as antioxidant capacity against the free radicals. The uniqueness of ORAC assay is that the reaction is driven to completion. This allows calculation of the area under the curve (AUC) and gives an absolute quantitation of antioxidancy as opposed to relative measurements in many other assays.
As noted, the longer it takes to observe a decrease in fluorescence, the higher the antioxidant (AO) potential. From the AUC for a given antioxidant, the AUC for blank is subtracted to give its ORAC value. The concentration of AO needed to give the same AUC values as Trolox is calculated and used to represent the Trolox equivalent AO Capacity (TEAC). Trolox is ((±)-6-Hydroxy-2,5,7,8-tetramethylchromane-2-carboxylic acid, CAS #53188-07-1), and is used as an internal control. […]
The inventive stilbene-pendant nitrones in the ORAC test solutions were at a concentration of 100 micromolar, while the concentrations of Trolox, Vitamin C, Vitamin E, BHT, PBN+BHT, and VAL-IPHA were at 100 micromolar. The TEAC values calculated from the ORAC values are listed the Table 2.

Row | Compound | TEAC (Trolox equivalent AO Capacity)
1 | CC(C)(C)/[N+]([O-])=C/c1ccccc1 [PBN, 2-Phenyl-N-tert-butylnitrone] | not very high
2 | O=C1O[C@H]([C@@H](O)CO)C(O)=C1O [Vitamin C] | 0.76
3 | Vitamin E | 0.13
